# In US8673912B2, “Crystalline Forms on N-[3-fluoro-4-({6-(methyloxy)-7-[(3-morpholin-4-ylpropyl)oxy]-quinolin-4-yl}oxy)phenyl]-N′-(4-fluorophenyl)cyclopropane-1,1-dicarboxamide” (Exelixis, Inc., priority 2009, dated 2014):
# Tests used:
# Format in all cases: physicochemical
# [1] = Relative thermodynamic stability of crystalline forms; details: forms A and B are enantiotropically related
# [2] = Retention of crystalline form in final tablet (XRPD); details: micronized, high shear wet granulation, compression, optional aqueous film coat
# Method: The tablets in this example were prepared with an optional aqueous film coat. Preparation of the intra-granular component involved a high shear wet granulation to make granules to be used for further processing. All components used are conventional for the wet granulation process except for the sodium lauryl sulfate which was added as a bioenhancement agent to enhance the bioavailability of the drug substance. The crystalline Compound (I), form B, was used in a micronized form for bioenhancement, which means that the density of the drug substance is low making it difficult to handle and process. High shear wet granulation is used to produce dense material that is easier to process and make into tablets. The preparation of the extra-granular component was a compression step to make the tablets out of the granules and the added excipients. The excipients used are conventional to allow for the formation of the tablet. The crystalline form of Compound 1, Form B, was retained in the final tablet as confirmed by XRPD.
# [3] = Gravimetric Vapor Sorption Study (GVS); details: crystalline Form A prepared in Example 1.1.2
# Method: The GVS study was run using a standard procedure. Samples were run on a Hiden IGASorp moisture sorption analyzer running CFRSorp software. Sample sizes were typically 10 mg. A moisture adsorption desorption isotherm was performed as outlined below. All samples were loaded/unloaded at typical room humidity and temperature (40% RH, 25° C.) and analyzed afterwards by XRPD. The standard isotherm run is a cycle starting at 40% RH→90%→Dry finishing at 35% RH at 25° C. and 10% RH intervals.
# [4] = Karl Fisher water content determination; details: crystalline Form A prepared in Example 1.1.2; measured in duplicate
# Method: The study was done using a standard procedure. Water contents were measured on a Mettler Toledo DL39 Coulometer using Hydranal AG Oven reagent and an argon purge. Samples were introduced into the vessel as solids weighed out onto a platinum TGA pan which was connected to a subaseal via tweezers to avoid water ingress. Approximately 10 mg of sample was used per titration and each analysis was performed in duplicate. The water content of crystalline Compound (I) prepared in Example 1.1.2 was measured in duplicate and gave an average value of 0.1%.
temperatures at which the form is believed to be the most thermodynamically stable form [1],crystalline form in the final tablet as confirmed by XRPD [2],weight gain (GVS) ([3]; 25° C. and 90% humidity) [%],reanalysis of the sample by XRPD after GVS ([3]; after isotherm cycle 40% RH to 90% to dry to 35% RH at 25° C.),"water content (Karl Fisher), average value [4] [%]",SMILES
less than 75 °C,,,,,"COc1cc2c(Oc3ccc(NC(=O)C4(C(=O)Nc5ccc(F)cc5)CC4)cc3F)ccnc2cc1OCCCN1CCOCC1 [Form A, N-[3-fluoro-4-({6-(methyloxy)-7-[(3-morpholin-4-ylpropyl)oxy]quinolin-4-yl}oxy)phenyl]-N′-(4-fluorophenyl)cyclopropane-1,1-dicarboxamide]"
greater than 75 °C,retained,,,,"COc1cc2c(Oc3ccc(NC(=O)C4(C(=O)Nc5ccc(F)cc5)CC4)cc3F)ccnc2cc1OCCCN1CCOCC1 [Form B, N-[3-fluoro-4-({6-(methyloxy)-7-[(3-morpholin-4-ylpropyl)oxy]quinolin-4-yl}oxy)phenyl]-N′-(4-fluorophenyl)cyclopropane-1,1-dicarboxamide]"
,,0.5,no change in form,0.1,"COc1cc2c(Oc3ccc(NC(=O)C4(C(=O)Nc5ccc(F)cc5)CC4)cc3F)ccnc2cc1OCCCN1CCOCC1 [Compound (I), N-[3-fluoro-4-({6-(methyloxy)-7-[(3-morpholin-4-ylpropyl)oxy]quinolin-4-yl}oxy)phenyl]-N′-(4-fluorophenyl)cyclopropane-1,1-dicarboxamide]"
